Data published in PubChem BioAssay (NCI).
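All cell lines were grown in 96-well plates and treated with compound for 48 hours. TGI: concentration producing complete growth inhibition.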

Assays:
Assay in all cases: NCI anticancer screen, dose series, 48 h
HS 578T breast = system: HS 578T breast
PC-3 prostate = system: PC-3 prostate
HOP-62 NSCLC = system: HOP-62 NSCLC
NCI-H23 lung = system: NCI-H23 lung
MDA-N = system: MDA-N
HT29 colon = system: HT29 colon
786-0 renal = system: 786-0 renal
CCRF-CEM leukemia = system: CCRF-CEM leukemia
HOP-92 NSCLC = system: HOP-92 NSCLC
NCI-H460 lung = system: NCI-H460 lung
SK-OV-3 ovarian = system: SK-OV-3 ovarian
ACHN renal = system: ACHN renal
HCT-116 colon = system: HCT-116 colon
NCI/ADR-RES ovarian = system: NCI/ADR-RES ovarian
SN12C renal = system: SN12C renal
COLO 205 colon = system: COLO 205 colon
CAKI-1 renal = system: CAKI-1 renal
IGROV1 ovarian = system: IGROV1 ovarian
RXF 393 renal = system: RXF 393 renal
HCC-2998 colon = system: HCC-2998 colon

Compound	TGI (HS 578T breast) [µM]	TGI (PC-3 prostate) [µM]	TGI (HOP-62 NSCLC) [µM]	TGI (NCI-H23 lung) [µM]	TGI (MDA-N) [µM]	TGI (HT29 colon) [µM]	TGI (786-0 renal) [µM]	TGI (CCRF-CEM leukemia) [µM]	TGI (HOP-92 NSCLC) [µM]	TGI (NCI-H460 lung) [µM]	TGI (SK-OV-3 ovarian) [µM]	TGI (ACHN renal) [µM]	TGI (HCT-116 colon) [µM]	TGI (NCI/ADR-RES ovarian) [µM]	TGI (SN12C renal) [µM]	TGI (COLO 205 colon) [µM]	TGI (CAKI-1 renal) [µM]	TGI (IGROV1 ovarian) [µM]	TGI (RXF 393 renal) [µM]	TGI (HCC-2998 colon) [µM]
O=C1OCCC[C@H]2O[C@@H](COCc3ccccc3)C[C@@H]12	> 100	> 100	> 100	> 100	> 100	> 100	> 100	> 100	> 100	> 100	> 100	> 100	> 100	> 100	> 100	> 100	> 100	–	–	–
O=C(NNC(=O)c1ccccc1O)c1ccco1	> 100	> 100	> 100	–	> 100	> 100	> 100	> 100	–	> 100	> 100	–	> 100	> 100	> 100	> 100	> 100	> 100	> 100	–
Cn1ccoc1=Nc1ccc(Cl)c(Cl)c1	> 10	> 10	> 10	> 10	> 10	> 10	> 10	> 10	> 10	> 10	> 10	> 10	> 10	> 10	> 10	> 10	> 10	> 10	–	> 10
CC(C)(C)OC(=O)NC(CS(=O)(=O)O)C(=O)O (stereo unspecified)	–	> 100	> 100	> 100	> 100	> 100	> 100	> 100	> 100	> 100	> 100	> 100	> 100	> 100	> 100	> 100	> 100	> 100	> 100	> 100
CCOC(=O)C(NC(=O)c1cccc(Cl)c1)(N1CCN(c2cc3c(cc2F)c(=O)c(C(=O)O)cn3C2CC2)CC1)C(F)(F)F (stereo unspecified)	58	34.6	50	37.1	29.4	–	28.3	9.78	34.6	42.9	66.5	31	25.5	–	93.9	30.2	36.2	41.5	34.4	34.8
Cc1cccc(/C=N/NC(=S)N(C)CCc2ccccn2)n1	> 100	> 100	–	> 100	> 100	> 100	> 100	0.0974	> 83.9	> 52.5	> 100	1.15	> 100	–	> 100	> 100	32.7	24.6	–	> 100
O=c1c2cc(S(=O)(=O)Nc3ccc(Cl)cc3Cl)ccc2ncn1NS(=O)(=O)c1cccc2ccccc12	> 100	> 100	> 100	> 100	> 100	> 100	> 100	47.7	81.4	> 100	> 100	> 100	> 100	> 100	> 100	> 100	85.7	> 100	–	> 100
N#CCC1(c2ccc(Cl)cc2)NC(=O)c2ccccc21 (stereo unspecified)	> 100	> 100	> 100	> 100	> 100	> 100	> 100	> 100	> 100	> 100	> 100	> 100	> 100	> 100	> 100	> 100	> 100	> 100	> 100	–
Cc1cc(-c2cscn2)c(O)c([N+](=O)[O-])c1	> 100	> 100	> 100	> 100	> 100	> 100	> 100	> 100	> 100	> 100	96	> 100	> 100	> 100	> 100	> 100	> 100	> 100	–	> 100
O=C(N/N=C/c1ccc(Cl)cc1)c1ccccc1Nc1ccccc1C(=O)N/N=C/c1ccc(Cl)cc1	–	> 100	> 100	> 100	> 100	> 100	> 100	> 100	> 100	> 100	> 100	> 100	> 100	> 100	> 100	> 100	> 100	> 100	> 100	> 100
Cc1cc2cc3ccccc3cc2c(=O)[nH]1	> 10	> 10	–	> 10	> 10	> 10	> 10	> 10	> 10	> 10	> 10	> 10	> 10	–	–	–	–	> 10	> 10	–
CSc1nc(Br)nc2ncn(C3CC(Oc4ccc(C)cc4)C(COc4ccc(C)cc4)O3)c12 (stereo unspecified)	63.5	> 100	> 100	> 100	> 100	> 100	> 100	> 100	> 100	> 100	> 100	> 100	> 100	> 100	> 100	> 100	> 100	> 100	–	> 100
OCCCCCCCCCCCOc1ccc(C2OCC3(CC=CCC3)CO2)cc1 (stereo unspecified)	40	22.8	35.9	31.6	32	14.8	30.5	55.6	32.8	36.5	37	33.3	29.3	36.3	36.8	46.8	31.1	33	–	38
Clc1ccc(-c2nc3ccc4ccccc4c3c3c2CCCC3)cc1	> 100	–	> 100	> 100	> 100	> 100	> 100	> 100	–	> 100	> 100	–	> 100	> 100	–	> 100	> 100	> 100	> 100	> 100
C=C(CO)[C@H]1Oc2ccc(C(C)=O)cc2[C@@H]1O	> 100	> 100	> 100	> 100	56.5	> 100	> 100	> 100	–	> 100	> 100	> 100	> 100	–	> 100	> 100	> 100	> 100	> 100	> 100
CCCCCCC1CC(=O)C1(Cl)Cl (stereo unspecified)	> 100	> 100	> 100	57.7	85	66.8	32.2	29.6	–	–	> 100	35.8	30.4	> 100	98.1	–	33.3	61.8	–	57.4
NS(=O)(=O)c1nnc(NS(=O)(=O)c2ccc(Cl)cc2)s1	> 100	–	> 100	> 100	> 100	> 100	> 100	–	> 100	> 100	> 100	> 100	> 100	> 100	> 100	> 100	> 100	–	> 100	> 100
C#CC(O)/C=C/C(O)CCCC(O)CC#CC(O)C#CC(O)CCCC(O)/C=C/CCCCCC(=O)CCCCCCCCCCCCCC(O)C(O)C#CC(=O)O (stereo unspecified)	33.3	> 50	> 50	> 50	> 50	> 50	> 50	34.2	27.1	> 50	> 50	> 50	> 50	> 50	> 50	> 50	> 50	36.6	–	> 50
CCCCc1ccc(Nc2nc(Cl)c3ncn(C4CC(Oc5ccc(C)cc5)C(COc5ccc(C)cc5)O4)c3n2)cc1 (stereo unspecified)	> 100	–	> 100	> 100	> 100	> 100	> 100	> 100	> 100	–	> 100	> 100	> 100	> 100	> 100	> 100	30.9	> 100	> 100	> 100
Cc1[nH]n(-c2ccccc2)c(=O)c1C(N(CCc1ccccc1)C1=NCC(C)S1)(C(F)(F)F)C(F)(F)F (stereo unspecified)	88.4	84.9	87.6	20	45.7	> 100	34.9	68.7	58.5	38.2	95.1	79.3	23.8	89	48.5	18.7	> 100	–	–	34
